Reference: PubChem BioAssay AID2060338 (Molecular Pharmacology Branch, DTP, NCI, 2025)

System: 556581-035-R-J1-PDC spheroids with HUVEC/MSC, viability
Assay: Anticancer human tumor 556581-035-R-J1-PDC patient-derived ovarian carcinoma cell line growth inhibition [IpAb]
Settings: for IC50: curve of first compound; for viability, T/C: stronger effect = lower value
How it was run: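 Combinations with ipatasertib or abemaciclib were tested on tumour spheroids holding HUVEC (25%) and MSC (15%) alongside 60% malignant cells. Top concentration was at or near clinical Cmax (10 microM if undefined), descending in half-log steps.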

[1] = second compound 0.1 µM, first compound 0.0316 µM
[2] = second compound 0.1 µM, first compound 0.1 µM
[3] = second compound 0.316 µM, first compound 0.0316 µM
[4] = second compound 0.316 µM, first compound 0.1 µM
[5] = second compound 1 µM, first compound 0.0316 µM
[6] = second compound 1 µM, first compound 0.1 µM
[7] = second compound 3.16 µM, first compound 0.0316 µM
[8] = second compound 3.16 µM, first compound 0.1 µM
[9] = second compound 10 µM, first compound 0.0316 µM
[10] = second compound 10 µM, first compound 0.1 µM
[11] = second compound 0.1 µM, first compound 0.316 µM
[12] = second compound 0.1 µM, first compound 1 µM
[13] = second compound 0.1 µM, first compound 3.16 µM
[14] = second compound 0.1 µM, first compound 10 µM
[15] = second compound 0.316 µM, first compound 0.316 µM
[16] = second compound 0.316 µM, first compound 1 µM
[17] = second compound 0.316 µM, first compound 3.16 µM
[18] = second compound 0.316 µM, first compound 10 µM
[19] = second compound 1 µM, first compound 0.316 µM
[20] = second compound 1 µM, first compound 1 µM
[21] = second compound 1 µM, first compound 3.16 µM
[22] = second compound 1 µM, first compound 10 µM
[23] = second compound 3.16 µM, first compound 0.316 µM
[24] = second compound 3.16 µM, first compound 1 µM
[25] = second compound 3.16 µM, first compound 3.16 µM
[26] = second compound 3.16 µM, first compound 10 µM
[27] = second compound 10 µM, first compound 0.316 µM
[28] = second compound 10 µM, first compound 1 µM
[29] = second compound 10 µM, first compound 3.16 µM
[30] = second compound 10 µM, first compound 10 µM
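Further: spheroids exposed to compounds for 7 days before readout.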

For `Cn1ncnc1[C@H]1c2n[nH]c(=O)c3cc(F)cc(c23)N[C@@H]1c1ccc(F)cc1` + CC(C)NCC(C(=O)N1CCN(c2ncnc3c2C(C)CC3O)CC1)c1ccc(Cl)cc1, the IC50 (second compound 0.1 µM) was > 100 nM, the IC50 (second compound 0.316 µM) was 94.3 nM and the IC50 (second compound 1 µM) was > 100 nM. The IC50 (second compound 3.16 µM) was > 100 nM, the IC50 (second compound 10 µM) was < 0.316 nM and the viability, T/C (second compound 0.1 µM, first compound 0.000316 µM) was 106%. It also gave a viability, T/C (second compound 0.1 µM, first compound 0.001 µM) of 93%, a viability, T/C (second compound 0.1 µM, first compound 0.00316 µM) of 88% and a viability, T/C (second compound 0.1 µM, first compound 0.01 µM) of 86.1%. It also gave a viability, T/C [1] of 82.6%, a viability, T/C [2] of 64.2% and a viability, T/C (second compound 0.316 µM, first compound 0.000316 µM) of 92.7%. For the same molecule, the viability, T/C (second compound 0.316 µM, first compound 0.001 µM) was 87.5%, the viability, T/C (second compound 0.316 µM, first compound 0.00316 µM) was 78% and the viability, T/C (second compound 0.316 µM, first compound 0.01 µM) was 59.7%. It also gave a viability, T/C [3] of 67.2%, a viability, T/C [4] of 46.8% and a viability, T/C (second compound 1 µM, first compound 0.000316 µM) of 70.6%. The viability, T/C (second compound 1 µM, first compound 0.001 µM) was 60%, the viability, T/C (second compound 1 µM, first compound 0.00316 µM) was 65.9% and the viability, T/C (second compound 1 µM, first compound 0.01 µM) was 52.2%. The viability, T/C [5] was 65.4%, the viability, T/C [6] was 55.4% and the viability, T/C (second compound 3.16 µM, first compound 0.000316 µM) was 51.2%. The viability, T/C (second compound 3.16 µM, first compound 0.001 µM) was 54.1%, the viability, T/C (second compound 3.16 µM, first compound 0.00316 µM) was 51.5% and the viability, T/C (second compound 3.16 µM, first compound 0.01 µM) was 54.8%. For the same molecule, the viability, T/C [7] was 44.2%, the viability, T/C [8] was 54.8% and the viability, T/C (second compound 10 µM, first compound 0.000316 µM) was 48.6%. It also gave a viability, T/C (second compound 10 µM, first compound 0.001 µM) of 46.3%, a viability, T/C (second compound 10 µM, first compound 0.00316 µM) of 42.9% and a viability, T/C (second compound 10 µM, first compound 0.01 µM) of 35.6%. The viability, T/C [9] was 44.2% and the viability, T/C [10] was 36.2%.

`Cn1nccc1Nc1nccc(-c2ccn(C(CO)c3ccc(Cl)c(F)c3)c(=O)c2)n1` (stereo not given) + CC(C)NCC(C(=O)N1CCN(c2ncnc3c2C(C)CC3O)CC1)c1ccc(Cl)cc1 gave an IC50 (second compound 0.1 µM) of 2480 nM, an IC50 (second compound 0.316 µM) of 2330 nM and an IC50 (second compound 1 µM) of 165 nM. The IC50 (second compound 3.16 µM) was < 31.6 nM, the IC50 (second compound 10 µM) was < 31.6 nM and the viability, T/C [1] was 94.8%. It also gave a viability, T/C [2] of 75.4%, a viability, T/C [11] of 71.8% and a viability, T/C [12] of 62.4%. It also gave a viability, T/C [13] of 50.2%, a viability, T/C [14] of 31.3% and a viability, T/C [3] of 61.6%. The viability, T/C [4] was 79.6%, the viability, T/C [15] was 60.1% and the viability, T/C [16] was 51.5%. It also gave a viability, T/C [17] of 52.2%, a viability, T/C [18] of 13.2% and a viability, T/C [5] of 55.8%. The viability, T/C [6] was 61.6%, the viability, T/C [19] was 41% and the viability, T/C [20] was 29.3%. The viability, T/C [21] was 24.8%, the viability, T/C [22] was 9.12% and the viability, T/C [7] was 48.4%. For the same molecule, the viability, T/C [8] was 36.4%, the viability, T/C [23] was 38.1% and the viability, T/C [24] was 22.7%. For the same molecule, the viability, T/C [25] was 11.6%, the viability, T/C [26] was 5.62% and the viability, T/C [9] was 35.7%. It also gave a viability, T/C [10] of 31.3%, a viability, T/C [27] of 27.8% and a viability, T/C [28] of 17.6%. It also gave a viability, T/C [29] of 12.3% and a viability, T/C [30] of 1.97%.

With `CCCS(=O)(=O)Nc1ccc(F)c(C(=O)c2c[nH]c3ncc(-c4ccc(Cl)cc4)cc23)c1F` + CC(C)NCC(C(=O)N1CCN(c2ncnc3c2C(C)CC3O)CC1)c1ccc(Cl)cc1 the IC50 (second compound 0.1 µM) was > 10000 nM, the IC50 (second compound 0.316 µM) was > 10000 nM and the IC50 (second compound 1 µM) was > 10000 nM. For the same molecule, the IC50 (second compound 3.16 µM) was 4620 nM, the IC50 (second compound 10 µM) was 31.6 nM and the viability, T/C [1] was 80.4%. It also gave a viability, T/C [2] of 83%, a viability, T/C [11] of 97.2% and a viability, T/C [12] of 88.6%. For the same molecule, the viability, T/C [13] was 90%, the viability, T/C [14] was 54.3% and the viability, T/C [3] was 90%. The viability, T/C [4] was 73.9%, the viability, T/C [15] was 71.8% and the viability, T/C [16] was 80.8%. It also gave a viability, T/C [17] of 78.2%, a viability, T/C [18] of 59.9% and a viability, T/C [5] of 67.1%. For the same molecule, the viability, T/C [6] was 69%, the viability, T/C [19] was 61.5% and the viability, T/C [20] was 71.3%. For the same molecule, the viability, T/C [21] was 69.1%, the viability, T/C [22] was 40.4% and the viability, T/C [7] was 49.2%. The viability, T/C [8] was 61.8%, the viability, T/C [23] was 55.5% and the viability, T/C [24] was 55.8%. It also gave a viability, T/C [25] of 54.5%, a viability, T/C [26] of 40.8% and a viability, T/C [9] of 45.1%. The viability, T/C [10] was 46.7%, the viability, T/C [27] was 47.2% and the viability, T/C [28] was 53.2%. The viability, T/C [29] was 50.8% and the viability, T/C [30] was 16.6%.

Molecule `CC1(C)CCC(CN2CCN(c3ccc(C(=O)NS(=O)(=O)c4ccc(NCC5CCOCC5)c([N+](=O)[O-])c4)c(Oc4cnc5[nH]ccc5c4)c3)CC2)=C(c2ccc(Cl)cc2)C1` + CCN1CCN(Cc2ccc(Nc3ncc(F)c(-c4cc(F)c5nc(C)n(C(C)C)c5c4)n3)nc2)CC1 has an IC50 (second compound 0.01 µM) of 8320 nM, an IC50 (second compound 0.0316 µM) of 6500 nM and an IC50 (second compound 0.1 µM) of 6720 nM. The IC50 (second compound 0.316 µM) was 5590 nM, the IC50 (second compound 1 µM) was 2060 nM and the viability, T/C (second compound 0.01 µM, first compound 0.0316 µM) was 92.6%. It also gave a viability, T/C (second compound 0.01 µM, first compound 0.1 µM) of 118%, a viability, T/C (second compound 0.01 µM, first compound 0.316 µM) of 112% and a viability, T/C (second compound 0.01 µM, first compound 1 µM) of 108%. For the same molecule, the viability, T/C (second compound 0.01 µM, first compound 3.16 µM) was 102%, the viability, T/C (second compound 0.01 µM, first compound 10 µM) was 40.2% and the viability, T/C (second compound 0.0316 µM, first compound 0.0316 µM) was 106%. It also gave a viability, T/C (second compound 0.0316 µM, first compound 0.1 µM) of 111%, a viability, T/C (second compound 0.0316 µM, first compound 0.316 µM) of 108% and a viability, T/C (second compound 0.0316 µM, first compound 1 µM) of 98%. For the same molecule, the viability, T/C (second compound 0.0316 µM, first compound 3.16 µM) was 95.5%, the viability, T/C (second compound 0.0316 µM, first compound 10 µM) was 23.7% and the viability, T/C [1] was 122%. For the same molecule, the viability, T/C [2] was 104%, the viability, T/C [11] was 107% and the viability, T/C [12] was 94.4%. It also gave a viability, T/C [13] of 91.6%, a viability, T/C [14] of 29.9% and a viability, T/C [3] of 94%. It also gave a viability, T/C [4] of 95.6%, a viability, T/C [15] of 92.2% and a viability, T/C [16] of 94.4%. For the same molecule, the viability, T/C [17] was 87.6%, the viability, T/C [18] was 11.8% and the viability, T/C [5] was 67%. The viability, T/C [6] was 58.1%, the viability, T/C [19] was 68.6% and the viability, T/C [20] was 56.8%. It also gave a viability, T/C [21] of 45.1% and a viability, T/C [22] of 6.15%.
